Literature values as cited in patent US6495521B2, “Combination therapy method for treating chronic hepatitis B” (SciClone Pharmaceuticals, Inc., priority 1993, dated 2002).

Legend:
hepatitis B virus = conditions: patients with chronic active hepatitis B who received the peptide
[1] = individuals suffering from chronic active hepatitis B

## Ac-Ser-Asp-Ala-Ala-Val-Asp-Thr-Ser-Ser-Glu- Ile-Thr-Thr-Lys-Asp-Leu-Lys-Glu-Lys-Lys-Glu- Val-Val-Glu-Glu-Ala-Glu-Asn-OH (Ac-SDAAVDTSSEITTKDLKEKKEVVEEAEN-OH) [thymosin alpha-1, 28 amino acid peptide originally isolated from calf thymus thymosin fraction 5]
Hepatitis B virus
  patients who cleared hepatitis B virus DNA from serum and persistently tested negative for serum HBV DNA after treatment was terminated: 75%
[1]
  lymphocyte counts: increases in lymphocyte counts
  production of gamma-interferon: enhance production of gamma-interferon
